From US20070232615A1, “Chemical Compounds” (priority 2004, published 2007)

How the values were obtained:
Type in all cases: cell-based
HIV-1 IIIB = experiment: HOS HIV-1 infectivity assay, IIIB strain; conditions: Human immunodeficiency virus 1; HOS cells, HIV-1 IIIB (T-tropic, CXCR4 utilizing), 96 h; read-out: HOS (3B)
Description: HOS HIV-1 Infectivity Assay
(§1) Compounds were profiled against two HIV-1 viruses, the M-tropic (CCR5 utilizing) Ba-L strain and the T-tropic (CXCR4 utilizing) IIIB strain. Both viruses were propagated in human peripheral blood lymphocytes. Compounds were tested for there ability to block infection of the HOS cell line (expressing hCXCR4/hCCR5/hCD4/pHIV-LTR-luciferase) by either HIV-1 Ba-L or HIV-1 IIIB. Compound cytotoxicity was also examined in the absence of virus addition.
HOS HIV-1 Infectivity Assay Format
(§2) HOS cells (expressing hCXCR4/hCCR5/hCD4/pHIV-LTR-luciferase) were harvested and diluted in Dulbeccos modified Eagles media supplemented with 2% FCS and non-essential amino acid to a concentration of 60,000 cells/ml. The cells were plated into 96-well plates (100 ul per well) and the plates were placed in a tissue culture incubator (37° C.; 5% CO2/95% air) for a period of 24 h.
(§3) Subsequently, 50 ul of the desired drug solution (4 times the final concentration) was added to each well and the plates were returned to the tissue culture incubator (37° C.; 5% CO2/95% air) for 1 h. Following this incubation 50 ul of diluted virus was added to each well (approximately 2 million RLU per well of virus). The plates were returned to the tissue culture incubator (37° C.; 5% CO2/95% air) and were incubated for a further 96 h.
(§4) Following this incubation the endpoint for the virally infected cultures was quantified following addition of Steady-Glo Luciferase assay system reagent (Promega, Madison, Wis.). Cell viability or non-infected cultures was measured using a CellTiter-Glo luminescent cell viability assay system (Promega, Madison, Wis.). All luminescent readouts are performed on a Topcount luminescence detector (Packard, Meridien, Conn.).

human CXCR4 = biological target: T1, human CXCR4 (Homo sapiens, UniProt P61073); experiment: Functional FLIPR assay (block of SDF-1 alpha induced [Ca2+]i change); conditions: HEK-293 cells with human CXCR4 and Gqi5 BacMam; antagonism of SDF-1 alpha; read-out: Functional assay (pIC50) (converted)
T1 construct: expressed in transfected cells; host or cells: HEK-293 cells (stably expressing human macrophage scavenger receptor class A type 1), transduced with human CXCR4 BacMam and Gqi5 BacMam baculoviruses
T1 sequence (P61073 whole entry): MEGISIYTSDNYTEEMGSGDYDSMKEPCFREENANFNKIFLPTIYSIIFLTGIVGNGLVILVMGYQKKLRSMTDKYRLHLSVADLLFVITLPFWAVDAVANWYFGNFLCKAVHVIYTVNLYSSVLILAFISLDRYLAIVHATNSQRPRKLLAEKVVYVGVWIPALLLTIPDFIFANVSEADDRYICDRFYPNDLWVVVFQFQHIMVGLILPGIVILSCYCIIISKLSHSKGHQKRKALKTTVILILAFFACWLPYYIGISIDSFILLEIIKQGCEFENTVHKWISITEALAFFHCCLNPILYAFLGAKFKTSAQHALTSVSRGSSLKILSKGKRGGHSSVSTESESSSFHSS
Description: Human embryonic kidney (HEK-293) cells were maintained and harvested as described above. Cells were plated in 96-well, black clear bottom, poly-lysine coated plates at a concentration of 40,000 cells per well in a final volume of 100 ul containing human CXCR4 BacMam (MOI=25) and Gqi5 BacMam (MOI=12.5). The cells were incubated at 37° C., 5% CO2, 95% humidity for 24 h to allow for protein expression.
After the required incubation time the cells were washed once with 50 ul of fresh serum-free DMEM/F12 media containing probenicid. 50 ul of dye solution was then added to the cells (Calcium Plus Assay Kit Dye; Molecular Devices) was dissolved in 200 ml of the above probenicid/BSA containing media and incubated for 1 h. Cell plates were transferred to a Fluorometric Imaging Plate Reader (FLIPR). Upon addition the effect of the compounds on the change in [Ca^2+]i was examined to determine if the compounds were agonists or antagonists (ability to block SDF-1 alpha activity) at the CXCR4 receptor. IC50 values are determined and pKb values are calculated using the Leff and Dougall equation: KB=IC50/((2+([agonist]/EC50ˆb)ˆ1/b−1) Where IC50 is that defined by the antagonist concentration-response curve [agonist] is the EC80 concentration of agonist used EC50 is that defined by the agonist concentration-response curve b is the slope of the agonist concentration-response curve.

HIV = experiment: HOS HIV infectivity assay (Table 2, strain not given); conditions: Human immunodeficiency virus 1, read-out: Activity Level
Procedure, shortened: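 HOS cells expressing hCXCR4/hCCR5/hCD4 and an HIV-LTR-luciferase reporter were preincubated with compound for 1 h in DMEM/2% FCS. They were then infected with HIV-1 Ba-L or IIIB (about 2 million RLU/well) for 96 h at 37° C. Infection was read by luciferase luminescence, and viability in uninfected cultures by CellTiter-Glo.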

[1] = Compound cytotoxicity in the absence of virus (CellTiter-Glo); conditions: human; HOS cells, no virus; read-out: Cytotox (pIC50) (converted)
Description: as §1, §2, §3, §4

[2] = system: HOS (hCXCR4/hCCR5/hCD4/pHIV-LTR-luciferase) cells and HEK-293 cells expressing HIV-1 gp160 (HXB2 strain); experiment: Cell/cell fusion assay (luciferase); conditions: Homo sapiens, HEK293; 24 h, luciferase readout; read-out: Fusion assay (pIC50) (converted)
Description: The complete coding sequences of HIV-1 tat (GenBank Accession No. X07861) and rev (GenBank Accession No. M34378) were cloned into pcDNA3.1 expression vectors containing G418 and hygromycin resistance genes, respectively. The complete coding sequence of the HIV-1 (HXB2 strain) gp160 envelope gene (nucleotide bases 6225-8795 of GenBank Accession No. K03455) was cloned into plasmid pCRII-TOPO. The three HIV genes were additionally inserted into the baculovirus shuttle vector, pFastBacMam1, under the transcriptional control of the CMV promoter. A construction of the pHIV-I LTR containing mutated NFkB sequences linked to the luciferase reporter gene was prepared by digesting pcDNA3.1, containing the G418 resistance gene, with Nru I and Bam HI to remove the CMV promoter. LTR-luc was then cloned into the Nru I/Bam HI sites of the plasmid vector. Plasmid preparations were performed after the plasmids were amplified in Escherichia coli strain DH5-alpha. The fidelity of the inserted sequences was confirmed by double-strand nucleotide sequencing using an ABI Prism Model 377 automated sequencer.
BacMam Baculovirus Generation
Recombinant BacMam baculoviruses were constructed from pFastBacMam shuttle plasmids by using the bacterial cell-based Bac-to-Bac system. Viruses were propagated in Sf9 (Spodoptera frugiperda) cells cultured in Hink's TNM-FH Insect media supplemented with 10% (v/v) fetal bovine serum and 0.1% (v/v) pluronic F-68 according to established protocols.
Human osteosarcoma (HOS) cells that naturally express human CXCR4 were transfected with human CCR5, human CD4 and the pHIV-LTR-luciferase plasmid using FuGENE 6 transfection reagent. Single cells were isolated and grown under selection condition in order to generate a stable HOS (hCXCR4/hCCR5/hCD4/pHIV-LTR-luciferase) clonal cell line. The cells were maintained in Dulbeccos modified Eagles media supplemented with 10% fetal calf serum (FCS), G418 (400 ug/ml), puromycin (1 ug/ml), mycophenolic acid (40 ug/ml), xanthine (250 ug/ml) and hypoxanthine (13.5 ug/ml) to maintain a selection pressure for cells expressing the LTR-luciferase, hCCR5 and hCD4, respectively. Human embryonic kidney (HEK-293) cells stably transfected to express the human macrophage scavenging receptor (Class A, type 1; GenBank Accession No. D90187), were maintained in DMEM/F-12 media (1:1) supplemented with 10% FCS and 1.5 ug/ml puromycin. The expression of this receptor by the HEK-293 cells enhances their ability to stick to tissue culture treated plasticware.
Transduction of HEK-293 cells
HEK-293 cells were harvested using enzyme-free cell dissociation buffer. The cells were resuspended in DMEM/F-12 media supplemented with 10% FCS and 1.5 ug/ml and counted. Tranductions were performed by direct addition of BacMam baculovirus containing insect cell media to cells. The cells were simultaneously transduced with BacMam baculovirus expressing HIV-1 tat, HIV-1 rev and HIV-1 gp160 (from the HXB2 HIV strain). Routinely an MOI of 10 of each virus was added to the media containing the cells. 2 mM butyric acid was also added to the cells at this stage to increase protein expression in transduced cells. The cells were subsequently mixed and seeded into a flask at 30 million cells per T225. The cells were incubated at 37° C., 5% CO2, 95% humidity for 24 h to allow for protein expression.
Cell/Cell Fusion Assay Format
HEK and HOS cells were harvested in DMEM/F-12 media containing 2% FCS and DMEM media containing 2% FCS, respectively, with no selection agents added. Compounds were plated as 1 ul spots in 100% DMSO on a 96-well CulturPlate plates. HOS cells (50 ul) were added first to the wells, followed immediately by the HEK cells (50 ul). The final concentration of each cell type was 20,000 cells per well. Following these additions, the cells were returned to a tissue culture incubator (37° C.; 5% CO2/95% air) for an additional 24 h.
Measurement of Luciferase Production […]

Structure (SMILES) | IC50 (HIV-1 IIIB) | IC50 (human CXCR4) | IC50 (HIV) | IC50 at 96 h [1] | IC50 [2]
CN(C)Cc1ccc(-c2cccc3nc(CN(C)C4CCCc5cccnc54)cn23)cc1 (stereo not drawn) [Example 18, N-[(5-{4-[(Dimethylamino)methyl]phenyl}imidazo[1,2-a]pyridin-2-yl)methyl]-N-methyl-5,6,7,8-tetrahydro-8-quinolinamine] | 65 nM | 38.9 nM | < 100 nM | > 100000 nM | 148 nM
CN(C)CCN(C)c1cccc2nc(CN(C)C3CCCc4cccnc43)cn12 (stereo not drawn) [Example 11, N,N,N′-Trimethyl-N′-(2-{[methyl(5,6,7,8-tetrahydro-8-quinolinyl)amino]methyl}imidazo[1,2-a]pyridin-5-yl)-1,2-ethanediamine] | 32 nM | 33.9 nM | < 100 nM | > 100000 nM | 67.6 nM
CC1CN(c2cccc3nc(CN(C)C4CCCc5cccnc54)cn23)CC(C)N1 (stereo not drawn) [Example 12, N-{[5-(3,5-Dimethyl-1-piperazinyl)imidazo[1,2-a]pyridin-2-yl]methyl}-N-methyl-5,6,7,8-tetrahydro-8-quinolinamine] | 87 nM | 28.2 nM | < 100 nM | > 100000 nM | 166 nM
CN1CCN(c2cccc3nc(CN(CC(F)(F)F)C4CCCc5cccnc54)cn23)CC1 (stereo not drawn) [Example 16, N-{[5-(4-Methyl-1-piperazinyl)imidazo[1,2-a]pyridin-2-yl]methyl}-N-(2,2,2-trifluoroethyl)-5,6,7,8-tetrahydro-8-quinolinamine] | 145 nM | 4.37 nM | 100 to 500 nM | > 100000 nM | 417 nM
CC(C)N1CCN(c2cccc3nc(CN(C)C4CCCc5cccnc54)cn23)CC1 (stereo not drawn) [Example 8, N-Methyl-N-({5-[4-(1-methylethyl)-1-piperazinyl]imidazo[1,2-a]pyridin-2-yl}methyl)-5,6,7,8-tetrahydro-8-quinolinamine] | 16 nM | 9.77 nM | < 100 nM | > 100000 nM | 22.4 nM
CC(C)N1CCN(c2cccc3nc(CN(C(C)C)C4CCCc5cccnc54)cn23)CC1 (stereo not drawn) [Example 15, N-(1-Methylethyl)-N-({5-[4-(1-methylethyl)-1-piperazinyl]imidazo[1,2-a]pyridin-2-yl}methyl)-5,6,7,8-tetrahydro-8-quinolinamine] | 38 nM | 3.63 nM | < 100 nM | > 100000 nM | 79.4 nM
CN(Cc1cn2c(N3CCNCC3)cccc2n1)C1CCCc2cccnc21 (stereo not drawn) [Example 10, N-Methyl-N-{[5-(1-piperazinyl)imidazo[1,2-a]pyridin-2-yl]methyl}-5,6,7,8-tetrahydro-8-quinolinamine] | 20 nM | 6.92 nM | < 100 nM | > 100000 nM | 17.8 nM
CCN1CCN(c2cccc3nc(CN(C)C4CCCc5cccnc54)cn23)CC1 (stereo not drawn) [Example 7, N-{[5-(4-Ethyl-1-piperazinyl)imidazo[1,2-a]pyridin-2-yl]methyl}-N-methyl-5,6,7,8-tetrahydro-8-quinolinamine] | 11 nM | 6.92 nM | < 100 nM | > 100000 nM | 11.2 nM
CC1CN(c2cccc3nc(CN(C)C4CCCc5cccnc54)cn23)CC(C)N1C (stereo not drawn) [Example 13, N-Methyl-N-{[5-(3,4,5-trimethyl-1-piperazinyl)imidazo[1,2-a]pyridin-2-yl]methyl}-5,6,7,8-tetrahydro-8-quinolinamine] | 62 nM | 18.2 nM | < 100 nM | > 100000 nM | 77.6 nM
CC(C)N(Cc1cn2c(N3CCN(C)CC3)cccc2n1)C1CCCc2cccnc21 (stereo not drawn) [Example 14, N-(1-Methylethyl)-N-{[5-(4-methyl-1-piperazinyl)imidazo[1,2-a]pyridin-2-yl]methyl}-5,6,7,8-tetrahydro-8-quinolinamine] | 13 nM | 2 nM | < 100 nM | > 100000 nM | 21.9 nM
CN(Cc1cn2c(N3CCN(C(=O)OC(C)(C)C)CC3)cccc2n1)C1CCCc2cccnc21 (stereo not drawn) [Example 9, 1,1-Dimethylethyl 4-(2-{[methyl(5,6,7,8-tetrahydro-8-quinolinyl)amino]methyl}imidazo[1,2-a]pyridin-5-yl)-1-piperazinecarboxylate] | 300 nM | 363 nM |  | > 100000 nM | 912 nM
